Test results published in patent US20140309296A1, “BUDIODARONE FORMULATIONS” (Armetheon, Inc., priority 2013, published 2014).
Where two headings read alike, the source gives them in different places.

Experiments:
[1] = Solubility of budiodarone tartrate in water containing various amounts of benzyl alcohol (Example 3); format: physicochemical
Description: Three series of samples were prepared. […] The vials were then capped and the mixtures were vortexed on a VWR Genie 2 vortexer at maximum speed for 3×10 sec duration. The final concentrations of budiodarone were 25 mg/ml, 50 mg/ml, and 100 mg/ml in water containing benzyl alcohol from 0.5% to 11% v/v. The vials were kept in the dark for 24 hours and analyzed by HPLC as per Example 1 Conditions 1.
The results are shown in FIG. 1, where the amount of budiodarone in solution is plotted as a function of the benzyl alcohol concentration. […] For example, at 25 mg/ml, budiodarone is soluble in approximately 1.5% to 4.5% v/v of benzyl alcohol. At 50 mg/ml, budiodarone is soluble in approximately 3% to 6% benzyl alcohol. At 100 mg/ml, budiodarone is soluble in approximately 4% to 8% benzyl alcohol.

[2] = Lower-limit ratio for soluble benzyl alcohol and budiodarone compositions in water (Example 6); format: physicochemical; conditions: 25, 50 and 100 mg/ml, introduced ratios 0.8 to 4.9, 24 hours in the dark, room temperature
Description: Three series of 20-ml screw-cap glass vials were prepared as described in Tables 5 to 7. Budiodarone tartrate was added to the empty vials, followed by water, and then benzyl alcohol was added. The vials were capped and the mixtures were vortexed for three times 10 seconds. The vials were then left in the dark for 24 hours and were then analyzed as described above using HPLC Conditions 2 and 3.
In FIG. 4, the approximately 5/1 lower-limit molar ratio is constant over a wide range of budiodarone concentrations, at least between budiodarone concentrations of 25 mg/ml and 100 mg/ml. The resulting ratios in solution, following 24-hour in the dark, were calculated from HPLC analysis data and were plotted versus the actual ratios introduced into the vials. Each point represents the mean findings of the three concentrations (25 mg/ml, 50 mg/ml, and 100 mg/ml)+/−standard deviation. […] This association takes place even when the original ratio introduced into the vial is as low as 0.8/1. Presumably the 5/1 ratio is an optimum molar ratio allowing for the optimum balance of repulsive ionic forces and attractive van der Waals forces between water molecules and the budiodarone/benzyl alcohol complex. […]

[3] = Pre-formed 3/1 benzyl alcohol/budiodarone composition, solubility in water (Example 7); format: physicochemical; conditions: 25 mg/ml budiodarone, 0.92% (v/v) benzyl alcohol, pre-mixed before water is added
Description: A clear solution containing 25 mg/ml of budiodarone and 0.92% (v/v) of benzyl alcohol (molar ratio of 3/1) was prepared. In this example, the association between budiodarone and benzyl alcohol was pre-formed before water is added.
Methanol (5 ml), budiodarone tartrate (250 mg, 0.293 mmole), and benzyl alcohol (92 μl, 0.880 mmole) were mixed. In this mixture, the molar ratio of benzyl alcohol to budiodarone was 3/1. Methanol was removed at 36° C. under partial vacuum (30 mm Hg) to form a clear oily residue. The residue was left at room temperature under high vacuum (1 mmHg) for 1 hour to remove traces of methanol. Water (10 ml), is then added, and the sample is vortexed for 3×10 sec.
In order to confirm the solubility of budiodarone and the molar ratio between benzyl alcohol and budiodarone, the sample was analyzed by HPLC. The analysis was performed immediately after preparation of the solution. An aliquot of the solution was centrifuged as described above in order to remove insoluble material.

[4] = Low ratio of benzyl alcohol to budiodarone in water and 5% dextrose solution, stability (Example 9); format: physicochemical; conditions: 2.14/1 molar ratio, 25 mg/ml, room temperature
Description: The methanol was evaporated at 36° C. under partial vacuum (30 mmHg) to yield a thin film. To this residue was added 5 ml of water. The sample was then vortexed and a clear 25 mg/ml solution of budiodarone tartrate was obtained. A small aliquot was diluted 25 times with methanol and analyzed by HPLC (Sample 1). To the flask was then added 250 mg of D-(+)-glucose (also known as dextrose), resulting in a clear solution of 25 mg/ml budiodarone tartrate in 5% dextrose (D5W). A small sample was analyzed by HPLC (Sample 2).
Sample 2 is then analyzed over time to check physical and/or chemical stability in solution (Table 9).

[5] = test system: sodium, potassium, and calcium ion channels; conditions: animals; cited from earlier work
[6] = test system: subjects with paroxysmal atrial fibrillation who had implanted pacemakers; conditions: cited from earlier work
[7] = cited from earlier work; for tolerability: oral, up to 600 mg BID
[8] = target: cytochrome P450 2C9 (CYP2C9) (Homo sapiens, UniProt P11712); conditions: cited from earlier work
Sequence of cytochrome P450 2C9 (CYP2C9) (P11712 whole entry): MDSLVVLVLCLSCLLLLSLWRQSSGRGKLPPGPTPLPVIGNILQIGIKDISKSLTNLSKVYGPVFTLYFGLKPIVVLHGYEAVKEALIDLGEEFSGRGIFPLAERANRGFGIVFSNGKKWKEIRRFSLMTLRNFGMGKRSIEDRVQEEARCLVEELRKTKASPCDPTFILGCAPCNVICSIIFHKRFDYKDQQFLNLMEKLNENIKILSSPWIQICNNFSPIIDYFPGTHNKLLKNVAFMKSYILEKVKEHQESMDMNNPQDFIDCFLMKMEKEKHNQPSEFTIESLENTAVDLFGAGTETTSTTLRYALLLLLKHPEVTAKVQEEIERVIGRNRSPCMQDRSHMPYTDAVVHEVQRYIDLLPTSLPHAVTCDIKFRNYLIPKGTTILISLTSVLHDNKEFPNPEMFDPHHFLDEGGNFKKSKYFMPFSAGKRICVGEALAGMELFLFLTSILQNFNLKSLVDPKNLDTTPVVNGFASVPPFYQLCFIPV

[9] = test system: patients with paroxysmal atrial fibrillation (PAF); conditions: 12 weeks, cited from earlier work; for median reduction in AFB: compared to placebo
[10] = pre-clinical safety testing; cited from earlier work

With CC[C@H](C)OC(=O)Cc1oc2ccccc2c1C(=O)c1cc(I)c(OCCN(CC)CC)c(I)c1 [budiodarone, (1S)-1-methylpropyl 2-(3-{4-[2-(diethylamino)ethoxy]-3,5-diiodobenzoyl}benzofuran-2-yl)acetate] the “molar ratio above which budiodarone was not fully soluble in water (phase separation)” value [1] was “approximately 11/1”, the “lower limit of the molar ratio of benzyl alcohol to budiodarone that forms in solution” value ([1]; 25-100 mg/ml) was “approximately 5/1” and the “lower-limit molar ratio of benzyl alcohol to budiodarone in solution” value [2] was “approximately 5/1”. The “solubility in water of pre-formed 3/1 molar ratio” value [3] was “water soluble”, the “time for which the low molar ratio is stable in D5W” value [4] was “about 120 hours” and the atrial effects [5] was “increased St-A and A-H intervals”. For the same compound, the “inhibition of sodium, potassium, and calcium ion channels” value [5] was “inhibition comparable with amiodarone”, the “left and right atrial refractoriness” value [5] was “increased left and right atrial refractoriness comparable with amiodarone” and the ventricular effects [5] was “increased MAPD90 and QT-interval”. The “mean AFB (SD)” value ([6]; 200 mg bid) was 5.2 ± 4.2%, the “mean AFB (SD)” value ([6]; 400 mg bid) was 5.2+5.2% and the “mean AFB (SD)” value ([6]; 600 mg bid) was 2.8+3.4%. For the same compound, the “mean AFB (SD)” value ([6]; 800 mg bid) was 1.5 ± 0.5%, the “decrease in AFB” value ([6]; at all doses (200 to 800 mg bid)) was “at least 70%” and the “Mean episode duration (SD)” value ([6]; p2 (200 mg bid)) was 1.7+2.5 h. For the same compound, the “relative reduction (RR) in AFB from baseline” value (“relative reduction (RR) in AFB” below) ([6]; p2 (200 mg bid)) was 71.2 ± 31.3%, the “Mean episode duration (SD)” value ([6]; p3 (400 mg bid)) was 0.6+0.7 h and the “relative reduction (RR) in AFB” value ([6]; p3 (400 mg bid)) was 71.7 ± 20.6%. For the same compound, the “Mean episode duration (SD)” value ([6]; p4 (600 mg bid)) was 0.1+0.2 h, the “relative reduction (RR) in AFB” value ([6]; p4 (600 mg bid)) was 79.9 ± 26.4% and the “Mean episode duration (SD)” value ([6]; p5 (800 mg bid)) was 0.5+0.7 h. For the same compound, the “relative reduction (RR) in AFB” value ([6]; p5 (800 mg bid)) was 86.8 ± 9.8%, the “number of AF episodes” value ([6]; treatment periods and washout) was “increased initially” and the “Mean episode duration (SD)” value ([6]; washout) was 2.4+3.0 h. For the same compound, the “mean AFB (SD)” value ([6]; washout) was 11.7+14.0%, the creatinine ([7]; BUN unchanged) was “reversible elevation” and the ALT ([7]; appeared to be dose related) was “mild, reversible increase”. The tolerability [7] was “safe and well tolerated”, the tolerability ([7]; listed as ATI-2042) was “well tolerated” and the tissue accumulation ([7]; slit lamp examination at the end of the treatment period) was “no evidence of budiodarone tissue accumulation”. The corneal deposits ([7]; slit-lamp examinations) was “No patient treated with ATI-2042 developed corneal deposits”, the “inhibition of CYP2C9” value [8] was “inhibitor” and the “median reduction in AFB” value ([9]; 400 mg BID) was 54.4%. For the same compound, the “median reduction in AFB” value ([9]; 600 mg BID) was 75.5%, the “median reduction in AFB” value ([9]; 600 mg BID, listed as Budiodarone) was “up to 75.5%” and the safety ([9]; 200, 400 or 600 mg BID) was “no drug-related SAEs”. The “findings in canine testes” value [10] was “Non-specific but potentially toxic findings”.
